What was measured:
[1] = test system: S. mansoni newly transformed schistosomula (NTS); experiment: In vitro testing on Schistosoma mansoni newly transformed schistosomula (NTS), viability score; type: cell-based; conditions: NTS S. mansoni, 33 μM, 72 h
Method: Assays were prepared according to the laboratory SOP for the lab of Dr. Jennifer Keiser (Swiss Tropical and Public Health Institute, Basel). Harvested S. mansoni cercariae (Liberian strain) obtained from infected Biomphalaria glabrata snails were mechanically transformed into newly transformed schistosomula (NTS) following standard procedures. Briefly, snails were placed under light in the morning to stimulate cercarial shedding. The cercarial suspension was collected, cooled for 30 minutes, and then vigorously pipetted (30×) and vortexed (3 minutes). The suspension was then placed in the incubator (37° C. and 5% CO2) for 30 minutes, and the vortexing and pipetting steps were repeated. The transformation was complete at this point, and the tails were separated from the heads by rinsing three times with cold HBSS. NTS were then incubated overnight in culture medium overnight and used the next day.
The original stock compounds (which were not already dissolved) were dissolved in dimethyl sulfoxide (DMSO) to a concentration of 10 mM. 100 NTS were placed in each well of a 96-well plate with culture medium, and the test compound for a final well volume of 250 μl. […] NTS incubated with no more than 1% DMSO served as control. NTS were kept in an incubator at 37° C. and 5% CO2 for up to 72 hours. After 72 hours, the condition of the NTS was microscopically evaluated using a scale from 3 (normal activity and no tegument alteration) to 0 (dead, completely granulated).

[2] = test system: Cryptococcus neoformans ATCC 90113; experiment: Antimicrobial microdilution assay against Cryptococcus neoformans (modified CLSI/NCCLS, optical density); type: cell-based; conditions: for X more potent than Amphotericin B: C. neoformans, ratio of molar IC50 to Amphotericin B; for C. neoformans IC50 / IC50: in vitro, C. neoformans ATCC 90113; for IC50: read-out: C. neoformans IC50 (mol/L)
In short: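 Broth microdilution (modified CLSI) in RPMI pH 6.0, samples serially diluted in 20% DMSO/saline and tested in duplicate, growth followed by OD630 before and after incubation. MFC is the lowest concentration giving no growth when 5 μL from clear wells is plated on agar.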

[3] = test system: methicillin-resistant S. aureus ATCC 33591 (MRS); experiment: Antibacterial broth dilution assay against MRSA (modified CLSI); type: cell-based, Staphylococcus aureus
Method: (§1) General Experimental Procedures. All organisms were obtained from the American Type Culture Collection (Manassas, VA) and include the fungi Candida albicans ATCC 90028, C. glabrata ATCC 90030, C. krusei ATCC 6258, and Cryptococcus neoformans ATCC 90113, and the bacteria Staphylococcus aureus ATCC 29213 and methicillin-resistant S. aureus ATCC 33591 (MRS). All organisms were tested using modified versions of the CLSI (formerly NCCLS) methods. For all organisms, optical density was used to monitor growth (NCCLS, Reference Method for Broth Dilution Antifungal Susceptibility Testing of Yeasts; Approved Standard M27-A2. National Committee on Clinical Laboratory Standards, 2002 22 (15); and NCCLS, Methods for Dilution Antimicrobial Susceptibility Tests for Bacteria that Grow Aerobically; Approved Standard, Seventh Edition M7-A7. National Committee on Clinical Laboratory Standards, 2006. 26(2)).
(§2) Samples (dissolved in DMSO) were serially-diluted in 20% DMSO/saline and transferred (10 μL) in duplicate to 96 well flat bottom microplates. Inocula were prepared by correcting the OD630 of microbe suspensions in incubation broth [RPMI 1640/0.2% dextrose/0.03% glutamine/MOPS @ pH 6.0 (Cellgro) for Candida spp., Sabouraud Dextrose for C. neoformans, and cation-adjusted Mueller-Hinton (Difco) @ pH 7.3 for Staphylococcus spp. to afford an assay volume of […] and final target inocula of: Candida spp. and C. neoformans: 1.5×10^3, and Staphylococcus spp.: 5.0×10^5 CFU/ml. Final sample test concentrations were 1/100th the DMSO stock concentration. […] All organisms were read at either 530 nm using the Biotek Powerwave XS plate reader (Bio-Tek Instruments, Vermont) prior to and after incubation: Candida spp. at 35° C. for 46-50 h, Staphylococcus spp. at 35° C. for 16-20 h, and C. neoformans at 35° C. for 70-74 h. IC50s (concentrations that afford 50% inhibition relative to controls) were calculated using XLfit 4.2 software (IDBS, Alameda, CA) using fit model 201. The MIC is defined as the lowest test concentration that allows no detectable growth. Minimum fungicidal or bactericidal concentrations were determined by removing 5 μl from each clear (or blue) well, transferring to fresh media, and incubating as previously mentioned. The MFC/MBC is defined as the lowest test concentration that kills the organism (allows no growth).
(§3) Primary Analysis. Samples were tested in duplicate at one test concentration (50 μg/mL), and percent inhibitions were calculated relative to blank and growth controls. Samples showing 50% inhibition in at least one test organism were selected for dose response (Secondary) studies.
(§4) Secondary Analysis. Extracts from the Primary Assay, and first-run pure compounds and column fractions were tested in duplicate at 3 test concentrations (5-fold dilutions). Samples dissolved to 20 mg/mL in DMSO were tested at 200, 40, and 8 μg/mL. Samples dissolved to 2 mg/mL in DMSO were tested at 20, 4, and 0.8 μg/mL.

C. krusei ATCC 6258 = experiment: Antifungal broth dilution assay against C. krusei (modified CLSI); type: cell-based, Candida krusei
Method: as §1, §2, §3, §4

[4] = test system: L. donovani promastigotes; experiment: Antileishmanial Alamar Blue assay on promastigotes; type: cell-based, Leishmania donovani
In short: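 L. donovani promastigotes in RPMI 1640 with 10% FCS, from 3-day culture, were set at 5×10^5/mL and exposed to compound (50-3.1 μg/mL) for 48 hours at 26° C. Growth read by Alamar Blue fluorescence (ex 544/em 590 nm); IC50 from percent growth versus concentration.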

[5] = test system: Staphylococcus aureus ATCC 29213; experiment: Antibacterial broth dilution assay against S. aureus (modified CLSI); type: cell-based
In short: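 Modified CLSI broth microdilution with OD monitoring before and after incubation at 35 °C: Candida in RPMI 1640/MOPS pH 6.0, 1.5×10^3 CFU/ml, 46-50 h; Staphylococcus in cation-adjusted Mueller-Hinton pH 7.3, 5.0×10^5 CFU/ml, 16-20 h. IC50 from curve fit; MIC is the lowest concentration with no growth; MFC/MBC from subculture.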

[6] = in vitro, converted with molecular weight
[7] = molar IC50 ratio versus ciprofloxacen

Molecule | Effect at 72 h (%) [1] | X more potent than Amphotericin B [2] | C. neoformans IC50 [2] | IC50 [2] | also measured
[Zn2(m-SB-Cyclams)(OAc)2][PF6]2 [KS26] | 11.71% | 0.02 | 12.510 mg/L | 12.1 µM | 
c1c(CN2CCCN3CCN(CCCNCC2)CC3)cc(CN2CCCN3CCN(CCCNCC2)CC3)cc1CN1CCCN2CCN(CCCNCC1)CC2 [CDG019] | 0.00% |  |  |  | 
CC(=O)[O-].CC(=O)[O-].F[P-](F)(F)(F)(F)F.F[P-](F)(F)(F)(F)F.[Cu+2].[Cu+2].c1cc(CN2CCNCCN3CCN(CC3)CC2)ccc1CN1CCNCCN2CCN(CC2)CC1 [OB28, [Cu2(p-SB-Cyclens)(OAc)2][PF6]2] | 0.00% | 0.05 | 5.210 mg/L | 5.04 µM | 
CC(=O)[O-].CN1CCCN2CCN(CCCN(Cc3ccccc3)CC2)CC1.F[P-](F)(F)(F)(F)F.[Co+2] [TRH016] | 11.71% |  |  |  | 
[Ni2(m-SB-Cyclams)(OAc)2][PF6]2 [KS25] | 18.02% | 0.02 | 16.030 mg/L | 15.7 µM | 
m-SB-cyclens HCl salt [OB25B] |  | 0.74 | 0.300 mg/L | 0.324 µM | MRSa IC50 ([3]; in vitro): 5.450 mg/L; IC50 [3, 6]: 5.88 µM; X more potent than ciprofloxacen [3, 7]: 0.04; X more potent than Amphotericin B (C. krusei ATCC 6258; C. krusei, ratio of molar IC50 to amphotericin B): 0.21; C. krusei IC50 (C. krusei ATCC 6258; in vitro): 6.530 mg/L; IC50 (C. krusei ATCC 6258; in vitro, read-out: C. krusei IC50 (mol/L)): 7.05 µM; X more potent than Pentamidine ([4]; L. donovani, ratio of molar IC50 to Pentamidine): 0.43; L. donovani IC50 ([4]; promastigotes, 48 hours, Alamar Blue): 11.45 mg/L; IC50 ([4]; promastigotes, 48 hours, Alamar Blue, read-out: L. donavani IC50): 12.4 µM; S. aureus IC50 ([5]; in vitro): 5.940 mg/L; IC50 [5, 6]: 6.41 µM; X more potent than ciprofloxacen [5, 7]: 0.04
CC(=O)[O-].CC(=O)[O-].CC(=O)[O-].CN1CCN2CCN(CC1)CCN(Cc1cc(CN3CCN4CCN(C)CCN(CC4)CC3)cc(CN3CCN4CCN(C)CCN(CC4)CC3)c1)CC2.F[P-](F)(F)(F)(F)F.F[P-](F)(F)(F)(F)F.F[P-](F)(F)(F)(F)F.[Cu+2].[Cu+2].[Cu+2] [BNS21, [Cu3(tris-CB-Cyclens)(OAc)3][PF6]3] | 5.41% | 0.28 | 1.320 mg/L | 0.85 µM | 
CC(=O)[O-].CC(=O)[O-].CN1CCN2CCN(CC1)CCN(Cc1cccc(CN3CCN4CCN(C)CCN(CC4)CC3)c1)CC2.F[P-](F)(F)(F)(F)F.F[P-](F)(F)(F)(F)F.[Cu+2].[Cu+2] [DJC06A, [Cu2(m-CB-Cyclens)(OAc)2][PF6]2] | 5.41% | 0.04 | 6.710 mg/L | 6.32 µM | 
CC(=O)[O-].CC(=O)[O-].CC(=O)[O-].CN1CCN2CCN(CC1)CCN(Cc1cc(CN3CCN4CCN(C)CCN(CC4)CC3)cc(CN3CCN4CCN(C)CCN(CC4)CC3)c1)CC2.F[P-](F)(F)(F)(F)F.F[P-](F)(F)(F)(F)F.F[P-](F)(F)(F)(F)F.O.O.O.O.O.O.[Zn+2].[Zn+2].[Zn+2] [BNS22, [Zn3(tris-CB-Cyclens)(OAc)3][PF6]3•6H2O] | 11.71% | 0.12 | 3.410 mg/L |  | 
[Zn3(tris-SB-Cyclens)(OAc)3][PF6]3•0.5NH4PF6 [CDG023] | 18.02% | 0.29 | 1.310 mg/L | 0.819 µM | 
[Cu3(tris-SB-Cyclens)(OAc)3][PF6]3•0.5NH4PF6 [CDG022] | 11.71% | 0.07 | 5.480 mg/L | 3.44 µM | 
F[P-](F)(F)(F)(F)F.F[P-](F)(F)(F)(F)F.F[P-](F)(F)(F)(F)F.F[P-](F)(F)(F)(F)F.F[P-](F)(F)(F)(F)F.F[P-](F)(F)(F)(F)F.[Ni+2].[Ni+2].[Ni+2].c1c(CN2CCCN3CCN(CCCNCC2)CC3)cc(CN2CCCN3CCN(CCCNCC2)CC3)cc1CN1CCCN2CCN(CCCNCC1)CC2 [CDG024, [Ni3(tris-SB-Cyclams)][PF6]6] | 5.41% | 0.18 | 2.440 mg/L | 1.33 µM | 
CC(=O)[O-].CC(=O)[O-].F[P-](F)(F)(F)(F)F.F[P-](F)(F)(F)(F)F.O.[Ni+2].[Ni+2].c1cc(CN2CCNCCN3CCN(CC3)CC2)ccc1CN1CCNCCN2CCN(CC2)CC1 [OB29, [Ni2(p-SB-Cyclens)(OAc)2][PF6]2•H2O] | 5.41% | 0.31 | ≤ 0.800 mg/L | 0.768 µM | 
[Cu2(m-SB-Cyclams)(OAc)2][PF6]2 [KS24] | 18.02% | 0.08 | 3.180 mg/L | 3.08 µM | 
c1c(CN2CCNCCN3CCN(CC3)CC2)cc(CN2CCNCCN3CCN(CC3)CC2)cc1CN1CCNCCN2CCN(CC2)CC1 [CDG029] | 24.32% |  |  |  | 
CC(=O)[O-].CC(=O)[O-].CC(=O)[O-].CN1CCCN2CCN(CCCN(Cc3cc(CN4CCCN5CCN(C)CCCN(CC5)CC4)cc(CN4CCCN5CCN(C)CCCN(CC5)CC4)c3)CC2)CC1.F[P-](F)(F)(F)(F)F.F[P-](F)(F)(F)(F)F.F[P-](F)(F)(F)(F)F.[Cu+2].[Cu+2].[Cu+2] [BNS025] | 18.02% |  |  |  | 

From US12139481B2, “Compositions comprising macrocycle derivatives incorporating bridged macrocycles and methods of producing and using same” (Southwestern Oklahoma State University, priority 2015, dated 2024)
